Assay results published in US10875875B2, “Propionic acid derivatives and methods of use thereof” (Aviara Pharmaceuticals, Inc., priority 2017, dated 2020).

Molecular target: α4β1 (Homo sapiens, UniProt P05556+P13612)
Assay: α4β1 integrin inhibition, IC50
Assay type: binding
Conditions: read-out: α4β1 IC50

α4β1, sequence (P13612 34-1032): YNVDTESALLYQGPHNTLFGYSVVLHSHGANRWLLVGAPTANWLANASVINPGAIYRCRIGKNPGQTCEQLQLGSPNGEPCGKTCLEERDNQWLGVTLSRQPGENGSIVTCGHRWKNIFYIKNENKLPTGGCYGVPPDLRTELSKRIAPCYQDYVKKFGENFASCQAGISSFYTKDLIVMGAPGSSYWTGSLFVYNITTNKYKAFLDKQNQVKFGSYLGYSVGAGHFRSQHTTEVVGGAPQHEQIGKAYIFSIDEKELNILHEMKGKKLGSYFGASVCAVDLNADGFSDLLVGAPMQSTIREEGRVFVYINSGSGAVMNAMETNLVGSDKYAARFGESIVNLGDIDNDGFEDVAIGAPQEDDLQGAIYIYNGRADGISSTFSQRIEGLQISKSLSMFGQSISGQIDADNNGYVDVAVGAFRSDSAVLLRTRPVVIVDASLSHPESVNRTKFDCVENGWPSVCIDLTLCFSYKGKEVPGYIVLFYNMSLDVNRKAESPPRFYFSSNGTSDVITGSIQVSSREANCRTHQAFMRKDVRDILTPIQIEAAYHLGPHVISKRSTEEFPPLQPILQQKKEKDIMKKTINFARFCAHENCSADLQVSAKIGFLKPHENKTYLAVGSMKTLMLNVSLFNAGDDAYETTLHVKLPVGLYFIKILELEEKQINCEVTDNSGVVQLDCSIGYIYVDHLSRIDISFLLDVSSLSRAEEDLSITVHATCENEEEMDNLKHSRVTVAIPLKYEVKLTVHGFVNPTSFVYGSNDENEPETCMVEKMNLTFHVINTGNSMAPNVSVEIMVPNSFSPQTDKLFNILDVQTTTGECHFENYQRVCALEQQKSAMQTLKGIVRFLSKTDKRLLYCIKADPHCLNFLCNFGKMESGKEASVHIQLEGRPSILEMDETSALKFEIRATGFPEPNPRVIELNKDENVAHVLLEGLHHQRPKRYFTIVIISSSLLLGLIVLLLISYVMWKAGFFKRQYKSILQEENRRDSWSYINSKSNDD
α4β1, sequence (P05556 21-798): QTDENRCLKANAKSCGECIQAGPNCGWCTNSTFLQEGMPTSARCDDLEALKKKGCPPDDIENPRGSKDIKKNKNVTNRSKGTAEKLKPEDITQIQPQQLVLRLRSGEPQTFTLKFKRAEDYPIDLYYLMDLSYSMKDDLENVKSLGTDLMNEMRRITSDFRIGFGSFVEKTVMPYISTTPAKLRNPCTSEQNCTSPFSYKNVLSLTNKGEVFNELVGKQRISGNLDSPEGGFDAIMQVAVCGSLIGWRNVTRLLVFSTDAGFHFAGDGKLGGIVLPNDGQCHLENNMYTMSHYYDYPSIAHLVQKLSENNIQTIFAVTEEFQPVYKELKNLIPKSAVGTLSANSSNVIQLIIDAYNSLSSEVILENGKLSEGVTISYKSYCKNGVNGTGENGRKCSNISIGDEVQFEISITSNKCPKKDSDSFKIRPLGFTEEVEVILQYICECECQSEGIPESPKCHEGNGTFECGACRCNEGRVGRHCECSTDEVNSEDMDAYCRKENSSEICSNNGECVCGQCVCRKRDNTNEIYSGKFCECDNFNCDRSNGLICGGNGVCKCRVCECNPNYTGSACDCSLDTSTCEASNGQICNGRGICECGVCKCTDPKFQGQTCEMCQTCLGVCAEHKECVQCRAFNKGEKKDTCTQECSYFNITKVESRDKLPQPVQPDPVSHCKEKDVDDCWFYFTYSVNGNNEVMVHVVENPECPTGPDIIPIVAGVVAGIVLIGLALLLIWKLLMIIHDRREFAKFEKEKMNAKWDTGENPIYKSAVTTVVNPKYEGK

SMILES	IC50 [nM]
Cc1ccc([C@H](CC(=O)O)NC(=O)Nc2c(O)ccn(C)c2=O)cc1-c1ccc(F)cc1F [1-541, sodium (S)-3-(2′,4′-difluoro-6-methylbiphenyl-3-yl)-3-(3-(1-methyl-4-oxido-2-oxo-1,2-dihydropyridin-3-yl)ureido)propanoate]	< 20
Cc1ccc([C@H](CC(=O)O)NC(=O)Nc2c(O)ccn(C)c2=O)cc1-c1c(C)cccc1C [1-545, sodium (S)-3-(3-(1-methyl-4-oxido-2-oxo-1,2-dihydropyridin-3-yl)ureido)-3-(2′,6,6′-trimethylbiphenyl-3-yl)propanoate]	< 20
Cn1ccc(O)c(NC(=O)N[C@@H](CC(=O)O)c2ccc(F)c(-c3c(F)cccc3F)c2)c1=O [1-546, sodium (S)-3-(3-(1-methyl-4-oxido-2-oxo-1,2-dihydropyridin-3-yl)ureido)-3-(2′,6,6′-trifluorobiphenyl-3-yl)propanoate]	< 20
Cn1ncc(O)c(NC(=O)N[C@@H](CC(=O)O)c2cccc(-c3ccc(F)cc3F)c2)c1=O [1-549, sodium (S)-3-(2′,4′-difluorobiphenyl-3-yl)-3-(3-(2-methyl-5-oxido-3-oxo-2,3-dihydropyridazin-4-yl)ureido)propanoate]	< 20
COc1cccc(-c2cc([C@H](CC(=O)O)NC(=O)Nc3c(O)cc(C)n(C)c3=O)ccc2OC)c1 [1-551, sodium (S)-3-(3′,6-dimethoxybiphenyl-3-yl)-3-(3-(1,6-dimethyl-4-oxido-2-oxo-1,2-dihydropyridin-3-yl)ureido)propanoate]	< 20
Cc1cc(O)c(NC(=O)N[C@@H](CC(=O)O)c2cc(-c3ccc(F)cc3F)cs2)c(=O)n1C [1-552, sodium (S)-3-(4-(2,4-difluorophenyl)thiophen-2-yl)-3-(3-(1,6-dimethyl-4-oxido-2-oxo-1,2-dihydropyridin-3-yl)ureido)propanoate]	< 20
COc1ccc([C@H](CC(=O)O)NC(=O)Nc2c(O)cc(C)n(C)c2=O)cc1-c1cccc(OC(F)(F)F)c1 [1-554, sodium (S)-3-(3-(1,6-dimethyl-4-oxido-2-oxo-1,2-dihydropyridin-3-yl)ureido)-3-(6-methoxy-3′-(trifluoromethoxy)biphenyl-3-yl)propanoate]	< 20
Cc1cc(O)c(NC(=O)N[C@@H](CC(=O)O)c2cccc(-c3ccc(F)cc3F)c2)c(=O)[nH]1 [1-557, sodium (S)-3-(2′,4′-difluorobiphenyl-3-yl)-3-(3-(6-methyl-4-oxido-2-oxo-1,2-dihydropyridin-3-yl)ureido)propanoate]	> 200
COc1cc(-c2ccc(F)cc2F)cc([C@H](CC(=O)O)NC(=O)Nc2c(O)ccn(C)c2=O)c1 [1-566, sodium (S)-3-(2′,4′-difluoro-5-methoxybiphenyl-3-yl)-3-(3-(1-methyl-4-oxido-2-oxo-1,2-dihydropyridin-3-yl)ureido)propanoate]	< 20
COc1cccc(-c2cc(OC)cc([C@H](CC(=O)O)NC(=O)Nc3c(O)cc(C)n(C)c3=O)c2)c1 [1-567, sodium (S)-3-(3′,5-dimethoxybiphenyl-3-yl)-3-(3-(1,6-dimethyl-4-oxido-2-oxo-1,2-dihydropyridin-3-yl)ureido)propanoate]	< 20
COc1cc(-c2cccc(OC(F)(F)F)c2)cc([C@H](CC(=O)O)NC(=O)Nc2c(O)cc(C)n(C)c2=O)c1 [1-568, sodium (S)-3-(3-(1,6-dimethyl-4-oxido-2-oxo-1,2-dihydropyridin-3-yl)ureido)-3-(5-methoxy-3′-(trifluoromethoxy)biphenyl-3-yl)propanoate]	< 20
COc1cccc(-c2cc([C@H](CC(=O)O)NC(=O)Nc3c(O)cc(C)n(C)c3=O)ccc2C)c1 [1-569, sodium (S)-3-(3-(1,6-dimethyl-4-oxido-2-oxo-1,2-dihydropyridin-3-yl)ureido)-3-(3′-methoxy-6-methylbiphenyl-3-yl)propanoate]	< 20
Cc1cc(-c2ccc(F)cc2F)cc([C@H](CC(=O)O)NC(=O)Nc2c(O)ccn(C)c2=O)c1 [1-574, sodium (S)-3-(2′,4′-difluoro-5-methylbiphenyl-3-yl)-3-(3-(1-methyl-4-oxido-2-oxo-1,2-dihydropyridin-3-yl)ureido)propanoate]	< 20
Cc1cc(-c2ccc(F)cc2F)cc([C@H](CC(=O)O)NC(=O)Nc2c(O)cc(C)n(C)c2=O)c1 [1-575, sodium (S)-3-(2′,4′-difluoro-5-methylbiphenyl-3-yl)-3-(3-(1,6-dimethyl-4-oxido-2-oxo-1,2-dihydropyridin-3-yl)ureido)propanoate]	< 20
Cc1ccc([C@H](CC(=O)O)NC(=O)Nc2c(O)ccn(C)c2=O)cc1-c1cccc(OC(F)(F)F)c1 [1-576, sodium (S)-3-(6-methyl-3′-(trifluoromethoxy)biphenyl-3-yl)-3-(3-(1-methyl-4-oxido-2-oxo-1,2-dihydropyridin-3-yl)ureido)propanoate]	< 20

Now from value to molecule:

IC50 [nM]	SMILES
< 20	Cn1ccc(O)c(NC(=O)N[C@@H](CC(=O)O)c2cccc(-n3ccnc3)c2)c1=O [1-539, sodium (S)-3-(3-(1H-imidazol-1-yl)phenyl)-3-(3-(1-methyl-4-oxido-2-oxo-1,2-dihydropyridin-3-yl)ureido)propanoate]
< 20	Cc1cscc1-c1cccc([C@H](CC(=O)O)NC(=O)Nc2c(O)ccn(C)c2=O)c1 [1-540, sodium (S)-3-(3-(1-methyl-4-oxido-2-oxo-1,2-dihydropyridin-3-yl)ureido)-3-(3-(4-methylthiophen-3-yl)phenyl)propanoate]
< 20	COc1cccc(-c2cc([C@H](CC(=O)O)NC(=O)Nc3c(O)ccn(C)c3=O)ccc2C)c1 [1-542, sodium (S)-3-(3′-methoxy-6-methylbiphenyl-3-yl)-3-(3-(1-methyl-4-oxido-2-oxo-1,2-dihydropyridin-3-yl)ureido)propanoate]
< 20	Cn1ccc(O)c(NC(=O)N[C@@H](CC(=O)O)c2cccc(-c3cc[nH]c3)c2)c1=O [1-544, sodium (S)-3-(3-(1H-pyrrol-3-yl)phenyl)-3-(3-(1-methyl-4-oxido-2-oxo-1,2-dihydropyridin-3-yl)ureido)propanoate]
< 20	COc1cccc(-c2cc([C@H](CC(=O)O)NC(=O)Nc3c(O)ccn(C)c3=O)ccc2F)c1 [1-547, sodium (S)-3-(6-fluoro-3′-methoxybiphenyl-3-yl)-3-(3-(1-methyl-4-oxido-2-oxo-1,2-dihydropyridin-3-yl)ureido)propanoate]
< 20	Cn1cc(-c2cccc([C@H](CC(=O)O)NC(=O)Nc3c(O)ccn(C)c3=O)c2)cn1 [1-548, sodium (S)-3-(3-(1-methyl-1H-pyrazol-4-yl)phenyl)-3-(3-(1-methyl-4-oxido-2-oxo-1,2-dihydropyridin-3-yl)ureido)propanoate]
< 20	COc1cccc(-c2cccc([C@H](CC(=O)O)NC(=O)Nc3c(O)cc(C)n(C)c3=O)c2)c1 [1-553, sodium (S)-3-(3-(1,6-dimethyl-4-oxido-2-oxo-1,2-dihydropyridin-3-yl)ureido)-3-(3′-methoxybiphenyl-3-yl)propanoate]
< 20	Cc1ccc([C@H](CC(=O)O)NC(=O)Nc2c(O)ccn(C)c2=O)cc1-c1cccc(Cl)c1 [1-555, sodium (S)-3-(3′-chloro-6-methylbiphenyl-3-yl)-3-(3-(1-methyl-4-oxido-2-oxo-1,2-dihydropyridin-3-yl)ureido)propanoate]
< 20	Cc1cc(O)c(NC(=O)N[C@@H](CC(=O)O)c2cccc(-c3cccc(Cl)c3)c2)c(=O)n1C [1-556, sodium (S)-3-(3′-chlorobiphenyl-3-yl)-3-(3-(1,6-dimethyl-4-oxido-2-oxo-1,2-dihydropyridin-3-yl)ureido)propanoate]
< 20	COc1cc(-c2ccccc2)cc([C@H](CC(=O)O)NC(=O)Nc2c(O)ccn(C)c2=O)c1 [1-558, sodium (S)-3-(5-methoxybiphenyl-3-yl)-3-(3-(1-methyl-4-oxido-2-oxo-1,2-dihydropyridin-3-yl)ureido)propanoate]
< 20	Cn1ccc(O)c(NC(=O)N[C@@H](CC(=O)O)c2cccc(-c3ccoc3)c2)c1=O [1-559, sodium (S)-3-(3-(furan-3-yl)phenyl)-3-(3-(1-methyl-4-oxido-2-oxo-1,2-dihydropyridin-3-yl)ureido)propanoate]
< 20	COc1cccc(-c2ccc([C@H](CC(=O)O)NC(=O)Nc3c(O)ccn(C)c3=O)s2)c1 [1-563, sodium (S)-3-(5-(3-methoxyphenyl)thiophen-2-yl)-3-(3-(1-methyl-4-oxido-2-oxo-1,2-dihydropyridin-3-yl)ureido)propanoate]
< 20	COc1cccc(-c2cc(OC)cc([C@H](CC(=O)O)NC(=O)Nc3c(O)ccn(C)c3=O)c2)c1 [1-564, sodium (S)-3-(3′,5-dimethoxybiphenyl-3-yl)-3-(3-(1-methyl-4-oxido-2-oxo-1,2-dihydropyridin-3-yl)ureido)propanoate]
< 20	COc1cc(-c2cccc(OC(F)(F)F)c2)cc([C@H](CC(=O)O)NC(=O)Nc2c(O)ccn(C)c2=O)c1 [1-565, sodium (S)-3-(5-methoxy-3′-(trifluoromethoxy)biphenyl-3-yl)-3-(3-(1-methyl-4-oxido-2-oxo-1,2-dihydropyridin-3-yl)ureido)propanoate]
< 20	Cn1ccc(O)c(NC(=O)N[C@@H](CC(=O)O)c2cc(-c3ccccc3)ccc2F)c1=O [1-570, sodium (S)-3-(4-fluorobiphenyl-3-yl)-3-(3-(1-methyl-4-oxido-2-oxo-1,2-dihydropyridin-3-yl)ureido)propanoate]
< 20	Cn1ccc(O)c(NC(=O)N[C@@H](CC(=O)O)c2cccc(-c3ccccc3)n2)c1=O [1-571, sodium (S)-3-(3-(1-methyl-4-oxido-2-oxo-1,2-dihydropyridin-3-yl)ureido)-3-(6-phenylpyridin-2-yl)propanoate]
< 20	Cc1cc(-c2c(C)cccc2C)cc([C@H](CC(=O)O)NC(=O)Nc2c(O)ccn(C)c2=O)c1 [1-573, sodium (S)-3-(3-(1-methyl-4-oxido-2-oxo-1,2-dihydropyridin-3-yl)ureido)-3-(2′,5,6′-trimethylbiphenyl-3-yl)propanoate]
